Results from ChEMBL document CHEMBL1201862, “PubChem BioAssay data set” (2004).
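Exposure lasted 48 hours, with cells grown in 96-well plates and compounds tested at five concentrations. Abbreviation: GI50, concentration required for 50% inhibition of growth.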 Calls of active or inactive are those of the source. Cut-off read from the data, not from the text of the source: active = GI50 up to about 1.1 µM and inactive = higher.

Legend:
Experiment in all cases: DTP human tumour cell line panel, 48 h
[1] = tested on: EKVX
[2] = tested on: HCC 2998
[3] = tested on: HCT-15
[4] = tested on: HL-60
[5] = tested on: M14
[6] = tested on: MCF7
[7] = tested on: MOLT-4
[8] = tested on: Malme-3M
[9] = tested on: NCI-H23
[10] = tested on: OVCAR-3
[11] = tested on: OVCAR-4
[12] = tested on: OVCAR-8
[13] = tested on: SF-295
[14] = tested on: SF-539
[15] = tested on: SK-MEL-5
[16] = tested on: SK-OV-3
[17] = tested on: SR
[18] = tested on: UACC-257
[19] = tested on: ACHN
[20] = tested on: KM12

Row | SMILES | GI50 [1] | GI50 [2] | GI50 [3] [µM] | GI50 [4] | GI50 [5] | GI50 [6] | GI50 [7] | GI50 [8] | GI50 [9] | GI50 [10] | GI50 [11] | GI50 [12] | GI50 [13] | GI50 [14] | GI50 [15] | GI50 [16] | GI50 [17] | GI50 [18] | GI50 [19] | GI50 [20]
1 | CC(C)(C)OC(=O)NCC(=O)NC1C/C(=N\O)c2sccc21 (configuration not stated) | > 100 µM (inactive) | > 100 µM (inactive) | > 100 | > 100 µM (inactive) | > 100 µM (inactive) | > 100 µM (inactive) | 0.621 µM (active) | > 100 µM (inactive) | > 100 µM (inactive) | > 100 µM (inactive) | > 100 µM (inactive) | > 100 µM (inactive) | > 100 µM (inactive) | > 100 µM (inactive) | > 100 µM (inactive) | > 100 µM (inactive) | > 100 µM (inactive) | > 100 µM (inactive) |  | 
2 | C=C(CC)C[C@@H]1C[C@]2(C(=O)OC)c3[nH]c4ccccc4c3CCN2C1=O | 30.8 µM (inactive) | 18.4 µM (inactive) | 16.6 | 23.4 µM (inactive) | 15.6 µM (inactive) | 20.7 µM (inactive) | 23 µM (inactive) | 20.7 µM (inactive) | 18.9 µM (inactive) | 14.1 µM (inactive) | 37.8 µM (inactive) | 33 µM (inactive) | 14.7 µM (inactive) | 16.4 µM (inactive) | 17.1 µM (inactive) | 21 µM (inactive) | 29.4 µM (inactive) | 19.2 µM (inactive) | 26.1 µM (inactive) | 24.4 µM (inactive)
3 | CCOC(=O)NC(Nc1ccc(Cl)cn1)(C(F)(F)F)C(F)(F)F | > 100 µM (inactive) | > 100 µM (inactive) | > 100 | > 100 µM (inactive) | > 100 µM (inactive) | > 100 µM (inactive) | > 100 µM (inactive) | > 100 µM (inactive) | > 100 µM (inactive) | > 100 µM (inactive) |  |  |  | > 100 µM (inactive) |  | > 100 µM (inactive) | > 100 µM (inactive) | > 100 µM (inactive) | > 100 µM (inactive) | > 100 µM (inactive)
4 | CCC(C)C1NC(=O)C2CCCN2C(=O)C(CC2CO2)OC(=O)CCNC(=O)C(C)N(C)C(=O)C(C(C)C)N(C)C1=O (configuration not stated) | 35.4 µM (inactive) | 21.8 µM (inactive) | 12.8 | < 0.0223 µM (active) | 0.0182 µM (active) | 0.0267 µM (active) | 1.57 µM (inactive) | 0.0142 µM (active) |  |  | 3.11 µM (inactive) | 0.22 µM (active) | 0.176 µM (active) | 0.199 µM (active) | < 0.0169 µM (active) | > 100 µM (inactive) | < 0.024 µM (active) | < 0.01 µM (active) | 0.54 µM (active) | 1.06 µM (active)
